Results taken from patent US12281332B2, “Methods of enhancing development of renal organoids and methods of using the same” (President and Fellows of Harvard College, priority 2017, dated 2025).
“Also recorded” adds a separate entry of the source.

Key:
Type in all cases: cell-based, human
[1] = tested on: PODXL+ glomeruli-like compartments of kidney organoids; assay: Vascular invasion of PODXL+ podocyte clusters in kidney organoids on chip, confocal imaging; settings: high FSS, 10 days on chip; bevacizumab, VEGF 100 ng/mL
Excerpt: Glomerular structures of kidney organoids in static culture are largely avascular. Upon animal transplantation, host-derived vascularization of kidney organoids Promotes glomerular vascularization. To determine whether FSS-induced vascularization of organoids in vitro extends to glomerular compartments, PODXL^+ podocyte clusters invaded by MCAMI^+ PECAM1^+ vascular structures were quantified using confocal imaging, in static and high FSS conditions (FIG. 18A and FIG. 18B). […] Given that there is significant upregulation of VEGF-A expression with high FSS (FIG. 18C), organoids cultured under flow can be used to study the role of VEGF in glomerular vascularization in vitro.
As vessel % area is unchanged between endogenous VEGF, VEGF addition, and VEGF inhibition, the difference in glomerular vascularization cannot be attributed to increased abundance of vasculature alone. Meanwhile, the reduced junctional density and increased average vessel length in unperturbed VEGF conditions may be interpreted as vessels growing towards an endogenous VEGF gradient versus more random sporadic growth in the absence of a gradient. Growing with the endogenous VEGF gradient under high flow conditions may allow vessels to reach glomeruli-like compartments in time to invade rather than wrap Bowman's capsule-like structures. […]

[2] = tested on: kidney organoids; assay: Association of PECAM1+ vasculature with LTL+ tubules, Imaris analysis; settings: for vasculotubular association (percent of vasculature surface area overlapping with LTL+ tubules): 10 days of high flow culture, VEGF 100 ng/mL or VEGF inhibitor in the media
Excerpt: Additionally, enhanced PECAM1^+ networks under high FSS associate with tubular structures in both transverse and longitudinal orientations (FIG. 16(d) and FIG. 17). The researchers quantified the association between PECAM1^+ networks and LTL^+tubules using Imaris surface rendering, distance transformation, and masking tools and reveal that under high flow conditions the percent of vascular surface area in contact with tubules is increased nearly 3 fold in comparison to organoids in static culture (FIG. 17(d)).
Confocal Z-stacks of PECAM1 and LTL were taken of fixed whole mount organoids, both iPSC and ESC derived, in the various culture conditions. The Z-stacks were taken at the limit of the confocal depth with each sample, roughly […] per sample which represents approximately the same volume per organoid analyzed. Those z-stacks were then opened in Imaris imaging software. The confocal 3D rendering was turned into a vascular surface and a tubule surface. Then the Imaris surface on surface area contact tool was used to quantify the percent overlap between the vascular and tubular surfaces in 3D, values were reported in FIG. 17(d). In order to assess the average distance the vasculature was away from a tubule, first an Imaris distance transformation was performed on the tubule surface. Then the resulting channel was masked by the vascular surface to create a new masked distance transformation channel. That masked distance transformation channel was opened in Fiji (ImageJ) to retrieve a histogram of all the 3D points, from which we obtained a geometric mean for each sample which is reported in FIG. 17(c).

[3] = tested on: kidney organoids; assay: Abundance of vasculature in kidney organoids, PECAM1/CD31 immunostaining and Angiotool; settings: for effect on vasculature formation / vascular growth (summary of studies): FBS 1.5 to 2%; for effect on the CD31+ population of cells (extent and abundance of vasculature): developing organoids age 11-14 Days, additives in advanced RPMI, static and perfused conditions; for vessel % area: high FSS, endogenous VEGF vs VEGF addition vs VEGF inhibition
Protocol: Methods: To determine effects of chemical additives on the developing developing organoids, the vesicles (age 11, 12, 13 and 14 Days) were treated with VEGF additives, GMEC media, PMA additives, antibiotics, or FBS or FCS additives and other components in advanced RPMI media as a base in both static and perfused conditions. The extent and abundance of vasculature was studied using immunostaining.
Confocal Z-stacks of PECAM1 were taken of fixed whole mount organoids, both iPSC and ESC derived, in the various culture conditions. The Z-stacks were taken at the limit of the confocal depth with each sample, roughly […] per sample which represents approximately the same volume per organoid analyzed. Those z-stacks were then flattened using ImageJ to a 2D max intensity projection (as required by the Angiotool for input). The default settings were employed on the Angiotool for analysis and vessel diameters of 4, 7, 10, and 14 were analyzed for each organoid. In all cases, the whole organoid was used for analysis.

Molecule	incidence of invasion of PODXL+ glomeruli-like compartments by PECAM1+MCAM+ vascular networks [1]	vasculotubular association (percent of vasculature surface area overlapping with LTL+ tubules) [2]	average distance in 3D between the vasculature and the tubules ([2]; high flow+VEGF compared with static)	effect on vasculature formation / vascular growth (summary of studies) [3]	outgrowth of endothelial-like cells ([3]; addition of VEGF)	vascular abundance ([3]; culture under FSS, VEGF added in the media)	effect on the CD31+ population of cells (extent and abundance of vasculature) [3]	vessel % area [3]	vascular abundance ([3]; static culture, exogenous VEGF)
vascular endothelial growth factor [VEGF]	significantly reduced	decouples these associations and returns values consistent with static culture levels; also recorded: negated	not statistically significantly different	did not help	robust outgrowth of endothelial-like cells	didn't change	no measureable effects	unchanged	did increase
bevacizumab [reference compound]	significantly reduced	decouples these associations and returns values consistent with static culture levels; also recorded: negated						unchanged	
CCCCCCCCCCCCCC(=O)O[C@@H]1[C@@H](C)[C@@]2(O)[C@@H](C=C(CO)C[C@]3(O)C(=O)C(C)=C[C@@H]23)[C@@H]2C(C)(C)[C@]12OC(C)=O [PMA, reference compound]				did not help			no measureable effects		
